What was measured:
WRN [1] = molecular target: T1, WRN (Homo sapiens, UniProt Q14191); assay: WRN Helicase activity assay (fluorescence DNA unwinding); assay type: biochemical; conditions: 1-hr pre-incubation with enzyme; 100 μM ATP, 25 nM forked dsDNA, 1 nM WRN; geometric mean of at least 2 replicates
T1 construct: A His-tagged construct of WRN (AA S2-S1235) was produced and used for the ATPase assay; His; made in house; host or cells: Sf9 insect cells (baculovirus)
Description: Compounds of the examples were tested for WRN helicase activity. DNA encoding the target protein, 6×HIS-TEV-WRN-517-945, was produced, cloned and transfected as detailed in Example D. To determine the inhibitory properties of the compounds, a 384 wells plate-based Helicase assay was set up to measure the extent of DNA unwinding (Helicase) activity of WRN. The WRN Helicase assay was designed to measure increase in fluorescence signal using a fluorescence based, donor-quencher paired forked dsDNA oligomer substrate (custom synthesis from Sigma-Aldrich) prepared by annealing equal amounts of oligo GPat-1 ([BHQ2][…]) and oligo GPat-2 ([…][TAM]). Continuous measurement of fluorescent signal was used to optimize the buffer conditions, concentration of enzyme (WRN), concentration of substrates (ATP & dsDNA), and the linearity of the Helicase reaction. All solutions were prepared in the following assay buffer: 50 mM Tris-HCl, pH-7.5, 2 mM MgCl2, 50 mM NaCl, 1 mM EGTA, 0.01% P-20, 0.05% BSA, and 2 mM DTT prepared with nuclease free water.
A serial dilution (1:3 scheme) of the compounds was prepared in neat DMSO and 100 nL of the compounds was dispensed in the Greiner black low volume (Greiner #784076) 384 wells assay plate. An 1-hr pre-incubation of the compounds with enzyme was included. A His-tagged construct of WRN (AA S2-S1235) was produced and used for the ATPase assay. Maximum inhibition control wells were set up with the addition of only assay buffer, and no inhibition control wells were set up with neat DMSO without test compounds. The reaction was initiated by addition of 5 μL substrate mix (200 μM ultrapure ATP, and 50 nM dsDNA prepared in assay buffer) and incubated at 25° C. for 35 min. A typical Helicase reaction consists of 25 nM forked dsDNA, 100 μM ATP, and 1 nM WRN prepared in assay buffer. The WRN Helicase reaction was quenched by the addition of 5 μL ‘STOP’ solution containing 100 mM EDTA (final EDTA concentration 33.33 mM) prepared in assay buffer. The plates were read on BMG PHERAstar FSX using 540/590 module to measure an increase of fluorescence. Data analysis was carried out using the Genedata software following % of control normalization. Fitting parameters include dose response IC50, Hill slope (n), maximum inhibition (S∞), and minimum inhibition (S0). The reported IC50 values for compounds in this invention are the geometric means of at least 2 independent replicates.

WRN [2] = molecular target: T1, WRN; assay: WRN ATPase activity assay (ADP-Glo); assay type: biochemical; conditions: 1-hr pre-incubation with enzyme; 100 μM ATP, 25 nM forked dsDNA, 1 nM WRN; geometric mean of at least 2 replicates
Description: Compounds of the Examples were tested for WRN ATPase activity. WRN ATPase activity catalyzes ATP hydrolysis to produce ADP and phosphate. DNA encoding the target protein, 6×HIS-TEV-WRN-517-945, was produced, cloned and transfected as detailed in Example D. The amount of ADP produced was measured using ADP-Glo™ Kinase Assay kit from Promega Corporation in a Greiner white regular volume 384 wells assay plate (Greiner #781075). Data was normalized to a standard curve generated using various ADP concentrations and the corresponding luminescent signal intensities at each concentration. The assay conditions were optimized for enzyme concentration (WRN), substrate concentrations (ATP & dsDNA), and the linearity of the ATPase reaction, in the following assay buffer: 50 mM Tris-HCl, pH-7.5, 2 mM MgCl2, 50 mM NaCl, 1 mM EGTA, 0.01% P-20, 0.05% BSA, and 2 mM DTT prepared with nuclease free water.
A serial dilution (1:3 scheme) of the compounds were prepared in neat DMSO, with 100 nL of the compounds dispensed in the 384 wells assay plate. An 1-hr pre-incubation of the compounds with enzyme was included. A His-tagged construct of WRN (AA S2-S1235) was produced and used for the ATPase assay. Maximum inhibition control wells were set up with the addition of only assay buffer, and no inhibition control wells were set up with neat DMSO without test compounds. The reaction was initiated by addition of 5 μL substrate mix (200 μM ultrapure ATP, and 50 nM dsDNA prepared in assay buffer) and incubated at 25° C. for 35 min. A forked dsDNA oligomer substrate was prepared by annealing equal amounts of oligo GPat-1 ([BHQ2][…]) and oligo GPat-2 ([…][TAM]) and was used as dsDNA substrate for WRN ATPase assay. A typical ATPase reaction consists of 25 nM forked dsDNA, 100 μM ATP, and 1 nM WRN prepared in assay buffer. The WRN ATPase reaction was stopped by the addition of 5 μL of ADP-Glo Reagent from ADP-Glo™ Kinase Assay kit and incubated for 40 min to deplete the unreacted ATP. Afterwards, 5 μL of Kinase Detection Reagent from the ADP-Glo™ Kinase Assay kit was added and incubated for 1 hr for the development of luminescence signal.
Luminesce signals were measured on BMG PHERAstar FSX using luminescence protocol. Data analysis was carried out using Genedata software following % of control normalization. Fitting parameters include dose response IC50, Hill slope (n), maximum inhibition (S∞), and minimum inhibition (S0). The reported IC50 values for compounds in this invention are the geometric means of at least 2 independent replicates.

T1 sequence (Q14191 2-1235): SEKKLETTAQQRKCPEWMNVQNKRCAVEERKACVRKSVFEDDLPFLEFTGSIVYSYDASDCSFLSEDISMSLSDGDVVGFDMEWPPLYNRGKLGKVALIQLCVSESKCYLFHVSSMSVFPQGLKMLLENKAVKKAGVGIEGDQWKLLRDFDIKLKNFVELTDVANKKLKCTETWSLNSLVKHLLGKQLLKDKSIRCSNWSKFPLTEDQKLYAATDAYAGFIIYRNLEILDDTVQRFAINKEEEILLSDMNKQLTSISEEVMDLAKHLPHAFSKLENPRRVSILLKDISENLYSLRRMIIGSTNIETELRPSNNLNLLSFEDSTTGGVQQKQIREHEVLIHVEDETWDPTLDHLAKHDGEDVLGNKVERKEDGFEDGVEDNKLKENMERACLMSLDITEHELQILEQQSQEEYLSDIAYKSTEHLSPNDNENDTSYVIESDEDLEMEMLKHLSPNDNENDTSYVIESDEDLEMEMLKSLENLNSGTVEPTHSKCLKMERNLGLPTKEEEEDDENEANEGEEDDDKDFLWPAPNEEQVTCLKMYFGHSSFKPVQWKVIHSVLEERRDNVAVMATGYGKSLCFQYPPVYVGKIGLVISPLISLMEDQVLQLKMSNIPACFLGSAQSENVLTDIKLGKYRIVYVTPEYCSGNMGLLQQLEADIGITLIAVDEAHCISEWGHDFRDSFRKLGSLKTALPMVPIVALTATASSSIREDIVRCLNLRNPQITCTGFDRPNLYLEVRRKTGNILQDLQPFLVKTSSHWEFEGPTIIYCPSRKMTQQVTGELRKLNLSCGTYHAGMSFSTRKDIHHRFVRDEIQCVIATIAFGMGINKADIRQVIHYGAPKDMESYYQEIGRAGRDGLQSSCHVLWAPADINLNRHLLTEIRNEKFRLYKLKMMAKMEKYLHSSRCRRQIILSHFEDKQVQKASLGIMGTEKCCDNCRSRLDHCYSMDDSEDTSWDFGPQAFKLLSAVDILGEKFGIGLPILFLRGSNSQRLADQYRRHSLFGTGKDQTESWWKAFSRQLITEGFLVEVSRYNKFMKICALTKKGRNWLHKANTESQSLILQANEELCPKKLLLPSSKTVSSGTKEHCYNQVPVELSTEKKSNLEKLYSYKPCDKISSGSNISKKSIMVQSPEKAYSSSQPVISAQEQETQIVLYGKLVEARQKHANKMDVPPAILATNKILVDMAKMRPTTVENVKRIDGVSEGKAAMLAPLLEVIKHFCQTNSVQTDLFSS

C=CC(=O)Nc1ccccc1-c1c(CC)nc2n(CC(=O)Nc3ccc(C(F)(F)F)cc3)c(C)c(-c3cnn(C)c3)n2c1=O [Example 16, N-(2-(7-Ethyl-2-methyl-3-(1-methyl-1H-pyrazol-4-yl)-5-oxo-1-(2-oxo-2-((4-(trifluoromethyl)phenyl)amino)ethyl)-1,5-dihydroimidazo[1,2-a]pyrimidin-6-yl)phenyl)acrylamide]
IC50 (WRN [1]): < 100 nM | IC50 (WRN [2]): < 100 nM

C=CC(=O)Nc1ccccc1-c1c(CC)nc2n(CC(=O)Nc3ccc(F)cc3)ccn2c1=O [Example 17, N-(2-(7-ethyl-1-(2-((4-fluorophenyl)amino)-2-oxoethyl)-5-oxo-1,5-dihydroimidazo[1,2-a]pyrimidin-6-yl)phenyl)acrylamide]
IC50 (WRN [1]): 100 to 500 nM | IC50 (WRN [2]): 100 to 500 nM

C=CC(=O)Nc1ccccc1-c1c(CC)nc2n(CC(=O)Nc3ccc(F)cc3)c(C)c(C)n2c1=O [Example 18, N-(2-(7-Ethyl-1-(2-((4-fluorophenyl)amino)-2-oxoethyl)-2,3-dimethyl-5-oxo-1,5-dihydroimidazo[1,2-a]pyrimidin-6-yl)phenyl)acrylamide]
IC50 (WRN [1]): < 100 nM | IC50 (WRN [2]): < 100 nM

C=CC(=O)Nc1ccccc1-c1c(C)nc2n(CC(=O)Nc3ccc(F)cc3)c(C)c(C)n2c1=O [Example 19, N-(2-(1-(2-((4-Fluorophenyl)amino)-2-oxoethyl)-2,3,7-trimethyl-5-oxo-1,5-dihydroimidazo[1,2-a]pyrimidin-6-yl)phenyl)acrylamide]
IC50 (WRN [1]): < 100 nM | IC50 (WRN [2]): < 100 nM

C=CC(=O)Nc1ccccc1-c1c(CC)nc2n(CC(=O)Nc3ccc(F)cc3Cl)c(C)c(C)n2c1=O [Example 20, N-(2-(1-(2-((2-Chloro-4-fluorophenyl)amino)-2-oxoethyl)-7-ethyl-2,3-dimethyl-5-oxo-1,5-dihydroimidazo[1,2-a]pyrimidin-6-yl)phenyl)acrylamide]
IC50 (WRN [1]): < 100 nM | IC50 (WRN [2]): < 100 nM

C=CC(=O)Nc1ccccc1-c1c(CC)nc2n(CC(=O)Nc3ccc(C(F)(F)F)cc3)c(C)c(C)n2c1=O [Example 21, N-(2-(7-Ethyl-2,3-dimethyl-5-oxo-1-(2-oxo-2-((4-(trifluoromethyl)phenyl)amino)ethyl)-1,5-dihydroimidazo[1,2-a]pyrimidin-6-yl)phenyl)acrylamide]
IC50 (WRN [1]): < 100 nM | IC50 (WRN [2]): < 100 nM

C=CC(=O)Nc1ccccc1-c1c(CC)nc2n(CC(=O)Nc3ccc(C(F)(F)F)cc3)c(-c3ccccc3)cn2c1=O [Example 22, N-(2-(7-Ethyl-5-oxo-1-(2-oxo-2-((4-(trifluoromethyl)phenyl)amino)ethyl)-2-phenyl-1,5-dihydroimidazo[1,2-a]pyrimidin-6-yl)phenyl)acrylamide]
IC50 (WRN [1]): 500 to 1000 nM | IC50 (WRN [2]): 1000 to 5000 nM

C=CC(=O)Nc1cc(C(=O)NC2CC2)ccc1-c1c(CC)nc2n(CC(=O)Nc3ccc(C(F)(F)F)cc3)c(C)c(C)n2c1=O [Example 23, 3-Acrylamido-N-cyclopropyl-4-(7-ethyl-2,3-dimethyl-5-oxo-1-(2-oxo-2-((4-(trifluoromethyl)phenyl)amino)ethyl)-1,5-dihydroimidazo[1,2-a]pyrimidin-6-yl)benzamide]
IC50 (WRN [1]): < 100 nM | IC50 (WRN [2]): < 100 nM

C=CC(=O)Nc1cc(C(=O)NC2CC2)ccc1-c1c(CC)nc2n(CC(=O)Nc3ccc(F)cc3)c(C)c(C)n2c1=O [Example 24, 3-Acrylamido-N-cyclopropyl-4-(7-ethyl-1-(2-((4-fluorophenyl)amino)-2-oxoethyl)-2,3-dimethyl-5-oxo-1,5-dihydroimidazo[1,2-a]pyrimidin-6-yl)benzamide]
IC50 (WRN [1]): < 100 nM | IC50 (WRN [2]): < 100 nM

C=CC(=O)Nc1cc(C(=O)NC2CC2)ccc1-c1c(CC)nc2n(CC(=O)Nc3ccc(F)cc3Cl)c(C)c(C)n2c1=O [Example 25, 3-Acrylamido-4-(1-(2-((2-chloro-4-fluorophenyl)amino)-2-oxoethyl)-7-ethyl-2,3-dimethyl-5-oxo-1,5-dihydroimidazo[1,2-a]pyrimidin-6-yl)-N-cyclopropylbenzamide]
IC50 (WRN [1]): < 100 nM | IC50 (WRN [2]): < 100 nM

C=CC(=O)Nc1cc(C(=O)NC2CC2)ccc1-c1c(CC)nc2n(CC(=O)Nc3ccc(C(F)(F)F)cc3Cl)c(C)c(C)n2c1=O [Example 26, 3-Acrylamido-4-(1-(2-((2-chloro-4-(trifluoromethyl)phenyl)amino)-2-oxoethyl)-7-ethyl-2,3-dimethyl-5-oxo-1,5-dihydroimidazo[1,2-a]pyrimidin-6-yl)-N-cyclopropylbenzamide]
IC50 (WRN [1]): < 100 nM | IC50 (WRN [2]): < 100 nM

C=CC(=O)Nc1cc(C(=O)NCC)ccc1-c1c(CC)nc2n(CC(=O)Nc3ccc(C(F)(F)F)cc3)c(C)c(C)n2c1=O [Example 27, 3-Acrylamido-N-ethyl-4-(7-ethyl-2,3-dimethyl-5-oxo-1-(2-oxo-2-((4-(trifluoromethyl)phenyl)amino)ethyl)-1,5-dihydroimidazo[1,2-a]pyrimidin-6-yl)benzamide]
IC50 (WRN [1]): < 100 nM | IC50 (WRN [2]): < 100 nM

C=CC(=O)Nc1cc(C(=O)NC(C)C)ccc1-c1c(CC)nc2n(CC(=O)Nc3ccc(C(F)(F)F)cc3)c(C)c(C)n2c1=O [Example 28, 3-Acrylamido-4-(7-ethyl-2,3-dimethyl-5-oxo-1-(2-oxo-2-((4-(trifluoromethyl)phenyl)amino)ethyl)-1,5-dihydroimidazo[1,2-a]pyrimidin-6-yl)-N-isopropylbenzamide]
IC50 (WRN [1]): < 100 nM | IC50 (WRN [2]): < 100 nM

C=CC(=O)Nc1cc(C(=O)NC2CCC2)ccc1-c1c(CC)nc2n(CC(=O)Nc3ccc(C(F)(F)F)cc3)c(C)c(C)n2c1=O [Example 29, 3-Acrylamido-N-cyclobutyl-4-(7-ethyl-2,3-dimethyl-5-oxo-1-(2-oxo-2-((4-(trifluoromethyl)phenyl)amino)ethyl)-1,5-dihydroimidazo[1,2-a]pyrimidin-6-yl)benzamide]
IC50 (WRN [1]): < 100 nM | IC50 (WRN [2]): < 100 nM

C=CC(=O)Nc1cc(C(=O)NCC(F)F)ccc1-c1c(CC)nc2n(CC(=O)Nc3ccc(C(F)(F)F)cc3)c(C)c(C)n2c1=O [Example 30, 3-Acrylamido-N-(2,2-difluoroethyl)-4-(7-ethyl-2,3-dimethyl-5-oxo-1-(2-oxo-2-((4-(trifluoromethyl)phenyl)amino)ethyl)-1,5-dihydroimidazo[1,2-a]pyrimidin-6-yl)benzamide]
IC50 (WRN [1]): < 100 nM | IC50 (WRN [2]): < 100 nM

C=CC(=O)Nc1cc(C(=O)NCCOC)ccc1-c1c(CC)nc2n(CC(=O)Nc3ccc(C(F)(F)F)cc3)c(C)c(C)n2c1=O [Example 31, 3-Acrylamido-4-(7-ethyl-2,3-dimethyl-5-oxo-1-(2-oxo-2-((4-(trifluoromethyl)phenyl)amino)ethyl)-1,5-dihydroimidazo[1,2-a]pyrimidin-6-yl)-N-(2-methoxyethyl)benzamide]
IC50 (WRN [1]): < 100 nM | IC50 (WRN [2]): < 100 nM

— patent US20250270217A1, “IMIDAZ0[1,2-A]PYRIMIDINE-5(1 H)-ONES HAVING A COVALENT WARHEAD AT THE 3-POSITION AS WRN INHIBITORS” (Incyte Corporation, priority 2023, published 2025)
